# Results: PMC12649225, “Machine Learning-Identified Potent Antimicrobial Peptides Against Multidrug-Resistant Bacteria and Skin Infections” (Antibiotics, 2025)
# Legend:
# MDR ESKAPE pathogens = test: Bactericidal activity (LC99.9), statements for the whole panel; assay type: cell-based
# Protocol: (§1) The bacterial strains used in this study included S. aureus JAR060131 [54] and the MDR ESKAPE pathogens Enterococcus faecium LUH15122, S. aureus LUH14616, Klebsiella pneumoniae LUH15104, A. baumannii RUH875 [55], Pseudomonas aeruginosa LUH15103, Enterobacter cloacae LUH15114, and the colistin-resistant Escherichia coli LUH15117. Before each experiment, bacteria from frozen stocks were cultured at 37 °C for 18–24 h on sheep blood agar plates (BioMérieux, Marcy-l’Étoile, France). All strains were then cultured from colonies either in tryptic soy broth (TSB; Oxoid, Basingstoke, UK) for A. baumannii, S. aureus, and E. faecium, or in brain heart infusion broth (BHI; Oxoid) for K. pneumoniae, P. aeruginosa, E. cloacae, and E. coli at 37 °C with shaking at 120 rpm for 18–24 h. Subsequently, bacteria were cultured to mid-logarithmic phase in the media described above at 37 °C with shaking at 120 rpm for 3 h. Bacteria were then washed twice with PBS and diluted to the required inoculum suspension concentration in Roswell Park Memorial Institute (RPMI)-1640 medium containing 20 mM HEPES and L-glutamine but without sodium bicarbonate (Sigma-Aldrich; hereafter referred to as RPMI), based on optical density at 620 nm. RPMI was selected because it supports bacterial growth without impairing AMP activity.
# (§2) Bactericidal activity was assessed as described by de Breij et al.. Briefly, mid-logarithmic phase bacterial cultures were diluted to a final concentration of 1 × 10^7 colony-forming units (CFU)/mL in RPMI. Then, 10 µL was added to a final volume of 100 µL in RPMI (final concentration: 1 × 10^6 CFU/mL). Cultures were exposed to peptides either in RPMI or RPMI supplemented with 50% (v/v) human plasma (hereafter referred to as 50% plasma), obtained from four healthy volunteers after informed consent, frozen after collection, and pooled (Sanquin, Amsterdam, The Netherlands). Assays were performed in duplicate using round-bottom polypropylene microtiter plates (Costar, Arlington, VA, USA) and repeated three times. In the initial screening phase (Table 1, Table 2 and Table S1), peptide solutions of 1, 10, and 100 μM (final concentration) were tested against A. baumannii RUH875 and S. aureus JAR060131 in RPMI and in 50% plasma. After this selection process, two lead candidates, their RI variants, and reference peptides were tested with a final concentration range of 0.12 to 120 µM (two-fold dilutions) in RPMI and in 50% plasma (Table 3). The peptides were also tested against ESKAPE pathogens, with Synthetic Antimicrobial and Antibiofilm Peptide (SAAP)-148 as a reference peptide (Table 4).RPMI or 50% plasma served as no-treatment controls. After 2 and 18 h of incubation at 37 °C with shaking at 120 rpm in a humidified environment, the numbers of viable bacteria were quantified. Bactericidal activity was expressed as the lethal concentration 99.9% (LC99.9), defined as the lowest peptide concentration that killed ≥99.9% of bacteria within 2 h (LC99.9_2h) or 18 h (LC99.9_18h) compared to the initial inoculum.
# S. aureus JAR060131 [1] = test: SYTOX Green membrane permeabilization assay; assay type: cell-based, Staphylococcus aureus
# Protocol: (§3) Control samples were exposed to RPMI only. As a positive control, heat-killed bacteria were incubated at 95 °C for 10 min to induce maximum membrane permeabilization. Fluorescence (excitation: 485 nm, emission: 520 nm) was monitored every minute for 90 min at 37 °C using a […] plate reader (Ortenberg, Germany), with peptides and positive controls added after the third cycle. Background fluorescence (SYTOX Green alone) was subtracted from all values. All assays were performed in triplicate and repeated twice independently.
# E. cloacae LUH15114 = assay type: cell-based
# Protocol: as §1, §2
# E. coli LUH15117 = assay type: cell-based
# Protocol: as §1, §2
# A. baumannii RUH875 [2] = assay type: cell-based
# Protocol: as §1, §2
# S. aureus JAR060131 [3] = assay type: cell-based
# Protocol: as §1, §2
# E. faecium LUH15122 = assay type: cell-based
# Protocol: as §1, §2
# P. aeruginosa LUH15103 = assay type: cell-based
# Protocol: as §1, §2
# S. aureus LUH14616 = assay type: cell-based
# Protocol: as §1, §2
# K. pneumoniae LUH15104 = assay type: cell-based
# Protocol: as §1, §2
# A. baumannii RUH875 [4] = test: SYTOX Green membrane permeabilization assay; assay type: cell-based, Acinetobacter baumannii; conditions: RPMI, 1 μM SYTOX Green; for Concentrations inducing membrane permeabilization / SYTOX uptake: 90 min, 37 °C
# Protocol: as §3
# [5] = 50% plasma, 2 h, median of three independent experiments
substance,measurement,setting,value
Ac-KRWVKIAKKWWRLL-NH2 [GDST-038],"Concentrations required for E. cloacae, S. aureus and P. aeruginosa in 50% plasma within 2 h","MDR ESKAPE pathogens; 50% plasma, 2 h, range over the three species",30 to 60 µM
same,"Time to rise in SYTOX fluorescence intensity after peptide addition, S. aureus",S. aureus JAR060131 [1]; at both sublethal and lethal concentrations,≤ 1 min
same,LC99.9 E. cloacae LUH15114 50% Plasma 18 h,"E. cloacae LUH15114; 50% plasma, 18 h, median of three independent experiments",1.88 µM
same,LC99.9 E. cloacae LUH15114 50% Plasma 2 h,"E. cloacae LUH15114; LUH15114, 2 h",60 µM
same,LC99.9 E. cloacae LUH15114 RPMI 2 h,"E. cloacae LUH15114; LUH15114, 2 h",3.75 µM
same,LC99.9 E. cloacae LUH15114 RPMI 18 h,"E. cloacae LUH15114; RPMI, 18 h, median of three independent experiments",1.88 µM
same,LC99.9 E. coli LUH15117 RPMI 2 h,"E. coli LUH15117; LUH15117, 2 h",0.94 µM
same,LC99.9 E. coli LUH15117 RPMI 18 h,"E. coli LUH15117; colistin-resistant strain, RPMI, 18 h, median of three independent experiments",1.88 µM
same,LC99.9 A. baumannii RUH875 50% Plasma 2 h,"A. baumannii RUH875 [2]; RUH875, 2 h",0.94 µM
same,LC99.9 A. baumannii RUH875 50% Plasma 18 h,"A. baumannii RUH875 [2]; RUH875, 18 h",0.47 µM
same,LC99.9 S. aureus JAR060131 50% Plasma 2 h,S. aureus JAR060131 [3]; [5],1.88 µM
same,LC99.9 S. aureus JAR060131 RPMI 2 h,"S. aureus JAR060131 [3]; JAR060131, 2 h",0.94 µM
same,LC99.9 S. aureus JAR060131 50% Plasma 18 h,"S. aureus JAR060131 [3]; JAR060131, 18 h",0.94 µM
same,LC99.9 E. faecium LUH15122 50% Plasma 2 h,E. faecium LUH15122; [5],1.88 µM
same,LC99.9 E. faecium LUH15122 50% Plasma 18 h,"E. faecium LUH15122; LUH15122, 18 h",7.5 µM
same,LC99.9 E. faecium LUH15122 RPMI 18 h,"E. faecium LUH15122; LUH15122, 18 h",0.94 µM
same,LC99.9 E. faecium LUH15122 RPMI 2 h,"E. faecium LUH15122; RPMI, 2 h, median of three independent experiments",1.88 µM
same,LC99.9 P. aeruginosa LUH15103 50% Plasma 2 h,"P. aeruginosa LUH15103; LUH15103, 2 h",15 µM
same,LC99.9 P. aeruginosa LUH15103 RPMI 2 h,"P. aeruginosa LUH15103; LUH15103, 2 h",7.5 µM
same,LC99.9 P. aeruginosa LUH15103 50% Plasma 18 h,"P. aeruginosa LUH15103; LUH15103, 18 h",15 µM
same,LC99.9 P. aeruginosa LUH15103 RPMI 18 h,"P. aeruginosa LUH15103; LUH15103, 18 h",3.75 µM
same,LC99.9 S. aureus LUH14616 50% Plasma 2 h,"S. aureus LUH14616; LUH14616, 2 h",7.5 µM
same,LC99.9 S. aureus LUH14616 RPMI 2 h,"S. aureus LUH14616; LUH14616, 2 h",0.94 µM
same,LC99.9 S. aureus LUH14616 50% Plasma 18 h,"S. aureus LUH14616; LUH14616, 18 h",0.94 µM
same,LC99.9 S. aureus LUH14616 RPMI 18 h,"S. aureus LUH14616; LUH14616, 18 h",0.94 µM
same,LC99.9 K. pneumoniae LUH15104 50% Plasma 2 h,"K. pneumoniae LUH15104; LUH15104, 2 h",7.5 µM
same,LC99.9 K. pneumoniae LUH15104 RPMI 2 h,"K. pneumoniae LUH15104; LUH15104, 2 h",3.75 µM
same,LC99.9 K. pneumoniae LUH15104 50% Plasma 18 h,"K. pneumoniae LUH15104; LUH15104, 18 h",3.75 µM
same,LC99.9 K. pneumoniae LUH15104 RPMI 18 h,"K. pneumoniae LUH15104; LUH15104, 18 h",3.75 µM
same,"SYTOX fluorescence intensity, A. baumannii","A. baumannii RUH875 [4]; 1- and 2-fold the LC99.9_2h concentrations, over 90 min",fluorescence levels similar to heat-killed controls
same,Concentrations inducing membrane permeabilization / SYTOX uptake,A. baumannii RUH875 [4],0.47 µM
"Ac-LKRVWKRVFKLLKRYWRQLKKPVR-NH2 (N-terminus and C-terminus assumed) [SAAP-148, reference compound]",Reduction in activity in plasma after 18 h,"MDR ESKAPE pathogens; 50% plasma vs RPMI, 18 h, except E. cloacae, A. baumannii, K. pneumoniae",8 to 16 fold
same,"Concentrations causing rapid rise in SYTOX fluorescence, S. aureus","S. aureus JAR060131 [1]; RPMI, 1 μM SYTOX Green, 90 min, 37 °C",0.23 to 1.88 µM
same,E. cloacae eradicated at lower concentrations in plasma,"E. cloacae LUH15114; 50% plasma vs RPMI, 18 h",4 fold
same,Concentrations inducing membrane permeabilization / SYTOX uptake,A. baumannii RUH875 [4],0.47 to 3.75 µM
